Measurements: patent US20070155764A1, “NOVEL SUBSTITUTED PYRIMIDINYLOXY UREAS USEFUL AS INHIBITORS OF PROTEIN KINASES” (KALYPSYS, INC., priority 2005, published 2007)

Tests used:
Type in all cases: biochemical
[1] = biological target: T1, human B-Raf protein kinase (Homo sapiens, UniProt P15056); assay: In vitro B-Raf/Mek1 composite kinase assay; details: recombinant GST-tagged human B-Raf (Δ1-415) with inactive Mek1, 2 μM ATP
T1 construct: GST (N); purchased Upstate Inc. 14-530 (B-Raf); 14-420 (Mek1)
Procedure, shortened: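 Luminescent ATP-depletion assay using recombinant N-terminal GST-tagged human B-Raf (Δ1-415, 1 ng/well) in MOPS pH 7.2 buffer with 10 mM MgCl2. Compounds were preincubated 15 min at about 22° C, then the reaction ran 2 h before PKLight readout. Efficacy is expressed as percentage of positive-control (Bay 43-9006) activity.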

[2] = biological target: T2, VEGFR2 kinase (Homo sapiens, UniProt P35968); assay: In vitro VEGFR2 kinase assay; details: ADP Quest assay, poly Glu:Tyr substrate, 60 μM ATP
T2 construct: purchased Invitrogen Inc PV3660
Procedure, shortened: (§1)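 Compound was preincubated 10 min at ~22 °C with 20 ng VEGFR2 or 25 ng PDGFRβ, then poly Glu:Tyr (4:1) substrate (0.25 μg) with 60 μM ATP (in added buffer) was reacted 2 h at 30 °C. ADP Quest resorufin fluorescence was read (ex 530/em 580) after 30 min. Efficacy is expressed as percent of positive-control (Bay 43-9006) activity, with DMSO as negative control.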

[3] = biological target: T3, PDGFRβ kinase (Homo sapiens, UniProt P09619); assay: In vitro PDGFRβ kinase assay; details: ADP Quest assay, poly Glu:Tyr substrate, 60 μM ATP
T3 construct: purchased Invitrogen Inc. P3082
Procedure, shortened: as §1

T1 sequence (P15056 416-766): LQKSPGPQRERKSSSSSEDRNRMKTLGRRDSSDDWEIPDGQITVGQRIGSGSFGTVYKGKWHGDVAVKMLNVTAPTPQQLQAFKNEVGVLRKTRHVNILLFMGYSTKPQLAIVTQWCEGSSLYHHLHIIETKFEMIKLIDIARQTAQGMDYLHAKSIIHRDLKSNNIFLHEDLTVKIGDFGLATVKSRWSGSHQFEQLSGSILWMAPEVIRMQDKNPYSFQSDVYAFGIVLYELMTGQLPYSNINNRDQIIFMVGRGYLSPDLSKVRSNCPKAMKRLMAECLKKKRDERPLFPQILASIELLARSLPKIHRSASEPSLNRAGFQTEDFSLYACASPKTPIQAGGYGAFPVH
T2 sequence (P35968 20-1356): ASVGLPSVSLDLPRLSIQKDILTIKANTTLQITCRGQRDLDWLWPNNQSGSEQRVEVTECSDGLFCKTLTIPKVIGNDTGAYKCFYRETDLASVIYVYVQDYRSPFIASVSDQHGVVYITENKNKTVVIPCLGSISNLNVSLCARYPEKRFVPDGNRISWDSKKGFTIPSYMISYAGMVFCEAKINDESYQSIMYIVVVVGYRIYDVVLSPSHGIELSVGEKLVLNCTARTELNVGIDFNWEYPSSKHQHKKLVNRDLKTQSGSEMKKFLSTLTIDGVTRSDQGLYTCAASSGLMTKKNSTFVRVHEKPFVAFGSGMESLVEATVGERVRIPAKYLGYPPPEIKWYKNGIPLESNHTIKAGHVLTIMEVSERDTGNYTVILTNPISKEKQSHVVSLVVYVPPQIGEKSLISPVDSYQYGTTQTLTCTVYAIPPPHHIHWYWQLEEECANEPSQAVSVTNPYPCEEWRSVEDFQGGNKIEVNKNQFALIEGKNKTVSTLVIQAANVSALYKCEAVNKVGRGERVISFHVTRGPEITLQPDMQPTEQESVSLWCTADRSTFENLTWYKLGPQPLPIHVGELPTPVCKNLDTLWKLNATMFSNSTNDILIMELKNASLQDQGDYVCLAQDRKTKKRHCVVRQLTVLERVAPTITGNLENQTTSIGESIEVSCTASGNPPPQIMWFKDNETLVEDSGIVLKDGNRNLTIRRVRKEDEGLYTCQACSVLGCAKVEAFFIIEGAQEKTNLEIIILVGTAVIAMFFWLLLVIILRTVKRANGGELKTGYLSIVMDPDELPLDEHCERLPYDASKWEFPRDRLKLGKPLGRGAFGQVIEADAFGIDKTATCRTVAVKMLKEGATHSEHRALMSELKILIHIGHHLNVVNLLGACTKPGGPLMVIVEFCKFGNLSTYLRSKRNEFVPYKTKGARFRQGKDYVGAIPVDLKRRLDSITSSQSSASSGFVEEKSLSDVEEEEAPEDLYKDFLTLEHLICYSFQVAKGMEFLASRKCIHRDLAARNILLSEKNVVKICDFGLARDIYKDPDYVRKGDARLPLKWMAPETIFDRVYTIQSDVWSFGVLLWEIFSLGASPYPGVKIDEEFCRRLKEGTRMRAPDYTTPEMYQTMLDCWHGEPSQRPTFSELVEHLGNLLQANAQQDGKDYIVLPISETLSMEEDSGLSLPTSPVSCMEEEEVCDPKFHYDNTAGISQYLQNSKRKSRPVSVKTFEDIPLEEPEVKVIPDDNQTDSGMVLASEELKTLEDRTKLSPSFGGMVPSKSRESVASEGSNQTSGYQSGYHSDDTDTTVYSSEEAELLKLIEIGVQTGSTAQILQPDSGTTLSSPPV
T3 sequence (P09619 33-1106): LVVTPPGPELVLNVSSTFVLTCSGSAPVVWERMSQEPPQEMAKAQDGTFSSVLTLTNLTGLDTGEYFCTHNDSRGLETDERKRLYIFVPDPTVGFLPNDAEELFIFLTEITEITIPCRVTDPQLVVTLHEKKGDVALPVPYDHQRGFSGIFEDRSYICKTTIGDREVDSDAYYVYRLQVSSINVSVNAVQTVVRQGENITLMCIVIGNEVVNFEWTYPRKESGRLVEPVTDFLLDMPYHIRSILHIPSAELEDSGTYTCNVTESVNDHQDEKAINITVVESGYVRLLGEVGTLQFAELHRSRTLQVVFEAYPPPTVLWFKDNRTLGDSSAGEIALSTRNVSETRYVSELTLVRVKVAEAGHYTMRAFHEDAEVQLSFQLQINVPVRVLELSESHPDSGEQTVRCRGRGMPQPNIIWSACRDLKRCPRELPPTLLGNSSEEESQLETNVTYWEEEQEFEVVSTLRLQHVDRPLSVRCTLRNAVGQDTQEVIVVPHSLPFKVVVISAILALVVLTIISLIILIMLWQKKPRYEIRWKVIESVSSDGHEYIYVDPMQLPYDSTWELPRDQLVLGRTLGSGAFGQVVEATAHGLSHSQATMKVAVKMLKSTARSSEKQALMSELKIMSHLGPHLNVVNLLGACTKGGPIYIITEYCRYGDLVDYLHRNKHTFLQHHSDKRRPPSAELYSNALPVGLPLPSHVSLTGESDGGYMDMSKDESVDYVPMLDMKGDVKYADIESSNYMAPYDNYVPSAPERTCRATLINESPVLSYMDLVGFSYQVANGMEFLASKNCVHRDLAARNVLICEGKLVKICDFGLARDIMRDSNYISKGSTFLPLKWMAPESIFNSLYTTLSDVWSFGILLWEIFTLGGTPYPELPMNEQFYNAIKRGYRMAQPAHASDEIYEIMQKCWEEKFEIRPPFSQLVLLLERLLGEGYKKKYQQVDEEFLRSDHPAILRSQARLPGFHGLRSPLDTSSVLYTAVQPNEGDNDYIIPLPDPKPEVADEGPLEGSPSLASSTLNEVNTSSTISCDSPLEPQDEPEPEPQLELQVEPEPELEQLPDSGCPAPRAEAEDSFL

IC50 [1] [µM] | IC50 [2] [µM] | IC50 [3] [µM] | Structure (SMILES)
> 10 | > 10 | ≤ 10 | Cc1nn(C)c(C)c1-c1cc(Oc2ccc(NC(=O)Nc3ccc(Cl)c(C(F)(F)F)c3)cc2)ncn1 [Example 70, 1-(4-Chloro-3-(trifluoromethyl)phenyl)-3-(4-(6-(1,3,5-trimethyl-1H-pyrazol-4-yl)pyrimidin-4-yloxy)phenyl)urea]
≤ 10 | ≤ 10 | ≤ 10 | Cn1cc(-c2nccc(Oc3cccc(NC(=O)Nc4ccc(Cl)c(C(F)(F)F)c4)c3)n2)cn1 [Example 71, 1-(4-Chloro-3-(trifluoromethyl)phenyl)-3-(3-(2-(1-methyl-1H-pyrazol-4-yl)pyrimidin-4-yloxy)phenyl)urea]
≤ 10 | ≤ 10 | ≤ 10 | Cn1cc(-c2nccc(Nc3ccc(NC(=O)Nc4ccc(Cl)c(C(F)(F)F)c4)cc3)n2)cn1 [Example 72, 1-(4-Chloro-3-trifluoromethyl-phenyl)-3-{4-[2-(1-methyl-1H-pyrazol-4-yl)-pyrimidin-4-ylamino]-phenyl}-urea]
≤ 10 | > 10 | ≤ 10 | O=C(Nc1ccc(Oc2cc(-c3nc(C(F)(F)F)c[nH]3)ncn2)cc1)Nc1ccc(Cl)c(C(F)(F)F)c1 [Example 73, 1-(4-Chloro-3-(trifluoromethyl)phenyl)-3-(4-(6-(4-(trifluoromethyl)-1H-imidazol-2-yl)pyrimidin-4-yloxy)phenyl)urea]
≤ 10 | > 10 | ≤ 10 | O=C(Nc1cccc(Oc2cc(-c3nc(C(F)(F)F)c[nH]3)ncn2)c1)Nc1ccc(Cl)c(C(F)(F)F)c1 [Example 74, 1-(4-Chloro-3-(trifluoromethyl)phenyl)-3-(3-(6-(4-(trifluoromethyl)-1H-imidazol-2-yl)pyrimidin-4-yloxy)phenyl)urea]
≤ 10 | ≤ 10 | ≤ 10 | COCCOc1ccc(NC(=O)Nc2cc(Oc3ccnc(-c4cnn(C)c4)n3)c(F)cc2F)cc1C(F)(F)F [Example 75, 1-(2,4-Difluoro-5-(2-(1-methyl-1H-pyrazol-4-yl)pyrimidin-4-yloxy)phenyl)-3-(4-(2-methoxyethoxy)-3-(trifluoromethyl)phenyl)urea]
≤ 10 | ≤ 10 | ≤ 10 | O=C(Nc1ccc(Oc2cc(-c3cnn(CCN4CCOCC4)c3)ncn2)cc1)Nc1ccc(Cl)c(C(F)(F)F)c1 [Example 76, 1-(4-Chloro-3-(trifluoromethyl)phenyl)-3-(4-(6-(1-(2-morpholinoethyl)-1H-pyrazol-4-yl)pyrimidin-4-yloxy)phenyl)urea]
≤ 10 | ≤ 10 | ≤ 10 | O=C(Nc1cccc(Oc2cc(-c3cnn(CCN4CCOCC4)c3)ncn2)c1)Nc1ccc(Cl)c(C(F)(F)F)c1 [Example 77, 1-(4-Chloro-3-(trifluoromethyl)phenyl)-3-(3-(6-(1-(2-morpholinoethyl)-1H-pyrazol-4-yl)pyrimidin-4-yloxy)phenyl)urea]
≤ 10 | ≤ 10 | ≤ 10 | Cn1cc(-c2nccc(Oc3ccc(F)c(NC(=O)Nc4ccc(Cl)c(C(F)(F)F)c4)c3)n2)cn1 [Example 78, 1-(4-Chloro-3-(trifluoromethyl)phenyl)-3-(2-fluoro-5-(2-(1-methyl-1H-pyrazol-4-yl)pyrimidin-4-yloxy)phenyl)urea]
≤ 10 | ≤ 10 | ≤ 10 | Cn1cc(-c2nccc(Oc3cccc(NC(=O)Nc4ccc(OC(F)(F)F)cc4)c3)n2)cn1 [Example 79, 1-(3-(2-(1-Methyl-1H-pyrazol-4-yl)pyrimidin-4-yloxy)phenyl)-3-(4-(trifluoromethoxy)phenyl)urea]
≤ 10 | ≤ 10 | ≤ 10 | Cn1cc(-c2nccc(Oc3cccc(NC(=O)Nc4ccc(C(F)(F)F)cc4)c3)n2)cn1 [Example 80, 1-(3-(2-(1-Methyl-1H-pyrazol-4-yl)pyrimidin-4-yloxy)phenyl)-3-(4-(trifluoromethyl)phenyl)urea]
≤ 10 | ≤ 10 | ≤ 10 | CCOC(=O)c1coc(-c2cc(Oc3cccc(NC(=O)Nc4ccc(Cl)c(C(F)(F)F)c4)c3)ncn2)n1 [Example 81, Ethyl 2-(6-(3-(3-(4-chloro-3-(trifluoromethyl)phenyl)ureido)phenoxy)pyrimidin-4-yl)oxazole-4-carboxylate]
≤ 10 | ≤ 10 | ≤ 10 | NC(=O)c1coc(-c2cc(Oc3cccc(NC(=O)Nc4ccc(Cl)c(C(F)(F)F)c4)c3)ncn2)n1 [Example 82, 2-(6-(3-(3-(4-Chloro-3-(trifluoromethyl)phenyl)ureido)phenoxy)pyrimidin-4-yl)oxazole-4-carboxamide]
≤ 10 | ≤ 10 | ≤ 10 | Cn1cc(-c2nccc(Oc3cccc(NC(=O)Nc4cccc(OC(F)(F)F)c4)c3)n2)cn1 [Example 83, 1-(3-(2-(1-Methyl-1H-pyrazol-4-yl)pyrimidin-4-yloxy)phenyl)-3-(3-(trifluoromethoxy)phenyl)urea]
≤ 10 | ≤ 10 | ≤ 10 | Cn1cc(-c2nccc(Oc3cccc(NC(=O)Nc4cc(C(F)(F)F)cc(C(F)(F)F)c4)c3)n2)cn1 [Example 84, 1-(3,5-Bis(trifluoromethyl)phenyl)-3-(3-(2-(1-methyl-1H-pyrazol-4-yl)pyrimidin-4-yloxy)phenyl)urea]
≤ 10 | ≤ 10 | ≤ 10 | O=C(Nc1cccc(Oc2cc(-c3ncc[nH]3)ncn2)c1)Nc1ccc(Cl)c(C(F)(F)F)c1 [Example 85, 1-(3-(6-(1H-Imidazol-2-yl)pyrimidin-4-yloxy)phenyl)-3-(4-chloro-3-(trifluoromethyl)phenyl)urea]
≤ 10 | ≤ 10 | ≤ 10 | C#Cc1cccc(NC(=O)Nc2cccc(Oc3cc(-c4cnn(C)c4)ncn3)c2)c1 [Example 86, 1-(3-Ethynylphenyl)-3-(3-(6-(1-methyl-1H-pyrazol-4-yl)pyrimidin-4-yloxy)phenyl)urea]
≤ 10 | ≤ 10 | ≤ 10 | Cn1cc(-c2nccc(Oc3ccc(NC(=O)Nc4ccc(Cl)c(C(F)(F)F)c4)c(F)c3)n2)cn1 [Example 88, 1-(4-Chloro-3-(trifluoromethyl)phenyl)-3-(2-fluoro-4-(2-(1-methyl-1H-pyrazol-4-yl)pyrimidin-4-yloxy)phenyl)urea]
≤ 10 | ≤ 10 | ≤ 10 | O=C(Nc1ccc(C(F)(F)F)cc1)Nc1cccc(Oc2cc(-c3nnco3)ncn2)c1 [Example 89, 1-(3-(6-(1,3,4-Oxadiazol-2-yl)pyrimidin-4-yloxy)phenyl)-3-(4-(trifluoromethyl)phenyl)urea]
≤ 10 | ≤ 10 | ≤ 10 | Cn1cc(-c2cc(Oc3ccc(F)c(NC(=O)Nc4ccc(C(F)(F)F)cc4F)c3)ncn2)cn1 [Example 90, 1-(2-Fluoro-4-(trifluoromethyl)phenyl)-3-(2-fluoro-5-(6-(1-methyl-1H-pyrazol-4-yl)pyrimidin-4-yloxy)phenyl)urea]
≤ 10 | ≤ 10 | ≤ 10 | Cn1cc(-c2cc(Oc3cccc(NC(=O)Nc4ccc(C(F)(F)F)cc4F)c3)ncn2)cn1 [Example 91, 1-(2-Fluoro-4-(trifluoromethyl)phenyl)-3-(3-(6-(1-methyl-1H-pyrazol-4-yl)pyrimidin-4-yloxy)phenyl)urea]
≤ 10 | ≤ 10 | ≤ 10 | Cn1cc(-c2cc(Oc3ccc(NC(=O)Nc4ccc(Cl)c(C(F)(F)F)c4)c(F)c3)ncn2)cn1 [Example 92, 1-(4-Chloro-3-(trifluoromethyl)phenyl)-3-(2-fluoro-4-(6-(1-methyl-1H-pyrazol-4-yl)pyrimidin-4-yloxy)phenyl)urea]
≤ 10 | ≤ 10 | ≤ 10 | Cn1cc(-c2nccc(Oc3ccc(NC(=O)Nc4cccc(C(F)(F)F)c4)c(F)c3)n2)cn1 [Example 93, 1-(2-Fluoro-4-(2-(1-methyl-1H-pyrazol-4-yl)pyrimidin-4-yloxy)phenyl)-3-(3-(trifluoromethyl)phenyl)urea]
≤ 10 | ≤ 10 | ≤ 10 | COc1ccc(C(F)(F)F)cc1NC(=O)Nc1cccc(Oc2cc(-c3cnn(C)c3)ncn2)c1 [Example 94, 1-(2-Methoxy-5-(trifluoromethyl)phenyl)-3-(3-(6-(1-methyl-1H-pyrazol-4-yl)pyrimidin-4-yloxy)phenyl)urea]
≤ 10 | ≤ 10 | ≤ 10 | COc1ccc(C(F)(F)F)cc1NC(=O)Nc1cc(Oc2cc(-c3cnn(C)c3)ncn2)ccc1F [Example 95, 1-(2-Fluoro-5-(6-(1-methyl-1H-pyrazol-4-yl)pyrimidin-4-yloxy)phenyl)-3-(2-methoxy-5-(trifluoromethyl)phenyl)urea]
≤ 10 | ≤ 10 | ≤ 10 | Cn1cc(-c2cc(Oc3cccc(NC(=O)Nc4ccc(C(F)(F)F)cc4Cl)c3)ncn2)cn1 [Example 96, 1-(2-Chloro-4-(trifluoromethyl)phenyl)-3-(3-(6-(1-methyl-1H-pyrazol-4-yl)pyrimidin-4-yloxy)phenyl)urea]
